The IC50 is the midpoint of a concentration-inhibition curve.

This is an account of results in US20180318287A1, “Imidazo[4,5-c]quinolin-2-one Compounds and Their Use in Treating Cancer” (ASTRAZENECA AB, priority 2015, published 2018).

Where two headings read alike, the source gives them in different places.

Holding throughout (type): cell-based
One experiment deals with T1, ATM kinase (Homo sapiens, UniProt Q13315).
T1 construct: endogenous in cells; host or cells: HT29 cells (ECACC #85061109)
T1 sequence (Q13315 whole entry): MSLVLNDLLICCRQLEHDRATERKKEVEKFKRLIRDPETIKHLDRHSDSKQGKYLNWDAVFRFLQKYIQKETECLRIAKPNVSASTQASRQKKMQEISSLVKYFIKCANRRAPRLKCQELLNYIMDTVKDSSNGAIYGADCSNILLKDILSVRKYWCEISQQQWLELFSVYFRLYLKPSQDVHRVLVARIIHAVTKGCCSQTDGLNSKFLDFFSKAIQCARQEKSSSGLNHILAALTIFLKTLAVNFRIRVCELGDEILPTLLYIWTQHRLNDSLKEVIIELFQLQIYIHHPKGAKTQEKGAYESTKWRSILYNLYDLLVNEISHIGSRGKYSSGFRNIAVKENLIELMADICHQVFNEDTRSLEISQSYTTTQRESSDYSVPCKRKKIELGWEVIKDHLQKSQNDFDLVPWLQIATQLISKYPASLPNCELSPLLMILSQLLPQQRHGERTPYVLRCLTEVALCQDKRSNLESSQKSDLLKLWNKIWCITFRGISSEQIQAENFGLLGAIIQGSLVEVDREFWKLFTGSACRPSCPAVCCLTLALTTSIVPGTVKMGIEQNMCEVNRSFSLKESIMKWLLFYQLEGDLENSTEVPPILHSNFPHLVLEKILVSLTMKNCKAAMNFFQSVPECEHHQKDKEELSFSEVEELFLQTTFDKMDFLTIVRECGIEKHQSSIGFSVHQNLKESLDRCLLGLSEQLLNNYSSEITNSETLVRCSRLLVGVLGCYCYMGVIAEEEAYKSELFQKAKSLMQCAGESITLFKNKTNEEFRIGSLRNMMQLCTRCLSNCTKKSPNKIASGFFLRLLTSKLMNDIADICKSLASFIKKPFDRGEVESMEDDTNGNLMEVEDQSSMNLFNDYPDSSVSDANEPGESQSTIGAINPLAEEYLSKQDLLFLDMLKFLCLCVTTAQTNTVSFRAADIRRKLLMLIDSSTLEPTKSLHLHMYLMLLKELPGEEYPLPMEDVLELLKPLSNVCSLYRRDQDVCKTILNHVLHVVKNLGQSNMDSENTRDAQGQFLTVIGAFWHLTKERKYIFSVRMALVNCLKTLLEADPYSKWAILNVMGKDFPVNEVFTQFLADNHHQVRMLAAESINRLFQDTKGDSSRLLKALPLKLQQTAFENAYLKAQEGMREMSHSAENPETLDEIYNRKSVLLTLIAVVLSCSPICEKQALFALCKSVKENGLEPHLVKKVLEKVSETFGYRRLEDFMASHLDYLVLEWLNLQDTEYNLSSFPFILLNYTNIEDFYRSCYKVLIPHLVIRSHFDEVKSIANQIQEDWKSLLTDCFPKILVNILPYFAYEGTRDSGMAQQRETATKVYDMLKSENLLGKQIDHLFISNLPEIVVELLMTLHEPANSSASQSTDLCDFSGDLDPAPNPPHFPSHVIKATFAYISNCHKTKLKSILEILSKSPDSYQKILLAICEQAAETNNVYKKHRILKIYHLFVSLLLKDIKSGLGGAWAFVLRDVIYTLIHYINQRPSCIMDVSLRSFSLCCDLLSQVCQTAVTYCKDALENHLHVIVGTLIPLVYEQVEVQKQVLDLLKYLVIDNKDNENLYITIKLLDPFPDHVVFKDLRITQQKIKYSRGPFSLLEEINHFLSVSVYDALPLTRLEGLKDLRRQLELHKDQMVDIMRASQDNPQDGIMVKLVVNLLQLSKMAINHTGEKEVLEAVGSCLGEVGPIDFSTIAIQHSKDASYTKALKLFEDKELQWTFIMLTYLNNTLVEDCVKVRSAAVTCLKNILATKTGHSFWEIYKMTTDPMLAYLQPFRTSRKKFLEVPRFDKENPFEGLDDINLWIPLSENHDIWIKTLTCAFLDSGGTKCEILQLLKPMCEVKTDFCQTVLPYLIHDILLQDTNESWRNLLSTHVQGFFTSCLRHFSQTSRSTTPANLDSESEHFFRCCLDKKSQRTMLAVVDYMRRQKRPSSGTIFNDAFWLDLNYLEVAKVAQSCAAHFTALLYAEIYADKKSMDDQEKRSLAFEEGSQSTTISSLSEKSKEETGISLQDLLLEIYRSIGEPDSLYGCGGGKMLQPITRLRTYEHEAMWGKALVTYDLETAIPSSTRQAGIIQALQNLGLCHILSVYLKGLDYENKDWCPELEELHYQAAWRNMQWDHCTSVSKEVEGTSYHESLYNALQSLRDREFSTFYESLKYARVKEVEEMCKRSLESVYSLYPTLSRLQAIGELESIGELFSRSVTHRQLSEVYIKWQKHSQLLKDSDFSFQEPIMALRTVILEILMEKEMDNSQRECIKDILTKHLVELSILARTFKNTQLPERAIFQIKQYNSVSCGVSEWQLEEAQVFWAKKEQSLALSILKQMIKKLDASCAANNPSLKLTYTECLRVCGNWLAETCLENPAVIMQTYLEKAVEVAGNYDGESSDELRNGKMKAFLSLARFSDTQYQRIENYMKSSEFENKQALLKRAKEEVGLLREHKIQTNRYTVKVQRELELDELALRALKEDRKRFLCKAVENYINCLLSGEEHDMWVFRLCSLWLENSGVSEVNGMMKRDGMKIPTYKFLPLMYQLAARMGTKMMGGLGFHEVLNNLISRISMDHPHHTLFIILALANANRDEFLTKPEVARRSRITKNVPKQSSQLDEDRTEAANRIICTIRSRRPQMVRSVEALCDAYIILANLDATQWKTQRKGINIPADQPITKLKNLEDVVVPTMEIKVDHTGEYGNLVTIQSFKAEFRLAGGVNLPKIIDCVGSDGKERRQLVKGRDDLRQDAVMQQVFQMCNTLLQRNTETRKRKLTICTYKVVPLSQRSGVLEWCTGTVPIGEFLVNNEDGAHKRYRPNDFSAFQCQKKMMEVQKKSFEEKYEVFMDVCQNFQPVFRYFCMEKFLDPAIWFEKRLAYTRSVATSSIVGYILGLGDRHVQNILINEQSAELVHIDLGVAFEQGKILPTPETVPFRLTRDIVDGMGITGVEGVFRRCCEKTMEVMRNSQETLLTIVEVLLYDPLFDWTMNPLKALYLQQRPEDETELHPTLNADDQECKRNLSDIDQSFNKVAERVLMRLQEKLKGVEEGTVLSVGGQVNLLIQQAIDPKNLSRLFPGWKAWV
Kind of experiment: Assay a): ATM cellular potency (pATM Ser1981 in irradiated HT29 cells). A digest of the protocol:
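HT29 cells pretreated with compound for 1 h at 37° C, X-ray irradiated (~600 cGy), then incubated 1 h more. Cells fixed, Triton-permeabilised and immunostained for pATM Ser1981; fluorescence quantified by ArrayScan high-content imaging.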

For a further experiment, the target named is PI3K-α (Homo sapiens, UniProt P42336). Description: Assay c): PI3K cellular potency (phospho-Akt T308 ELISA in BT474 cells). To be noted: for IC50: BT474 cells, phospho-Akt T308, 2 h; Table 2; read-out: Assay c) PI3Kα Cell IC50; for Assay c) PI3Ka Cell IC50: BT474 cells, phospho-Akt T308, 2 h, Table 3 comparative data. From the text: This assay was used to measure PI3K-α inhibition in cells. PDK1 was identified as the upstream activation loop kinase of protein kinase B (Akt1), which is essential for the activation of PKB. Activation of the lipid kinase phosphoinositide 3 kinase (PI3K) is critical for the activation of PKB by PDK1.
PI3K-α, sequence (P42336 whole entry, the tested form may be a part): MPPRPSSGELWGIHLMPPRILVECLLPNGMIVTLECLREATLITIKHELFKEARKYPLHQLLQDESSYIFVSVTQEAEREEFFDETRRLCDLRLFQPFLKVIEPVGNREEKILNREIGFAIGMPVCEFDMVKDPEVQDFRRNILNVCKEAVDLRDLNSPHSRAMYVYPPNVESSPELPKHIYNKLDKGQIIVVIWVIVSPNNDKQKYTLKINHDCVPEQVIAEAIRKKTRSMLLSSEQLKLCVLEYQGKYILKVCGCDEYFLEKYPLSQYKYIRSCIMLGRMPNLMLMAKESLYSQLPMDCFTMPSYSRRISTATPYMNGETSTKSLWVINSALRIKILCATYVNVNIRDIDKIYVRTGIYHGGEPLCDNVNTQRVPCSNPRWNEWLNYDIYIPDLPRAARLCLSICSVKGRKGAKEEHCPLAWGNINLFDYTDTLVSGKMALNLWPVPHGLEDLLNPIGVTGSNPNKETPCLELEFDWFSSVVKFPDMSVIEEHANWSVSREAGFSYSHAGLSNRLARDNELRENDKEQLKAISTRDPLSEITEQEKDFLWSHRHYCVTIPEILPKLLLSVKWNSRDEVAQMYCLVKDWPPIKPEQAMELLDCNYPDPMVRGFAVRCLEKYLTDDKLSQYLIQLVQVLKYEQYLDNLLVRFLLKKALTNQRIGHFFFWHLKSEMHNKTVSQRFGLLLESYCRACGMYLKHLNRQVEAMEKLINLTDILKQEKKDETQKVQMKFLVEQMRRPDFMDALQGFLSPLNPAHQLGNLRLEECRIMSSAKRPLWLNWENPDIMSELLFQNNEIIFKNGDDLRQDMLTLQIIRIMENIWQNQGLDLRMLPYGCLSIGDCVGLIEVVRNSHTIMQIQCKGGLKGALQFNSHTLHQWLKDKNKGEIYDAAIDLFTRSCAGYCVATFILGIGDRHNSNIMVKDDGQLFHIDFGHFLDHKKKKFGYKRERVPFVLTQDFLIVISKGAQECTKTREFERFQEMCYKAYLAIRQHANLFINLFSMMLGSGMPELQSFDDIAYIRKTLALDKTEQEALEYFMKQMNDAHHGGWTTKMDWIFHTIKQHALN
PI3K-α, sequence (P27986 2-724, further chain): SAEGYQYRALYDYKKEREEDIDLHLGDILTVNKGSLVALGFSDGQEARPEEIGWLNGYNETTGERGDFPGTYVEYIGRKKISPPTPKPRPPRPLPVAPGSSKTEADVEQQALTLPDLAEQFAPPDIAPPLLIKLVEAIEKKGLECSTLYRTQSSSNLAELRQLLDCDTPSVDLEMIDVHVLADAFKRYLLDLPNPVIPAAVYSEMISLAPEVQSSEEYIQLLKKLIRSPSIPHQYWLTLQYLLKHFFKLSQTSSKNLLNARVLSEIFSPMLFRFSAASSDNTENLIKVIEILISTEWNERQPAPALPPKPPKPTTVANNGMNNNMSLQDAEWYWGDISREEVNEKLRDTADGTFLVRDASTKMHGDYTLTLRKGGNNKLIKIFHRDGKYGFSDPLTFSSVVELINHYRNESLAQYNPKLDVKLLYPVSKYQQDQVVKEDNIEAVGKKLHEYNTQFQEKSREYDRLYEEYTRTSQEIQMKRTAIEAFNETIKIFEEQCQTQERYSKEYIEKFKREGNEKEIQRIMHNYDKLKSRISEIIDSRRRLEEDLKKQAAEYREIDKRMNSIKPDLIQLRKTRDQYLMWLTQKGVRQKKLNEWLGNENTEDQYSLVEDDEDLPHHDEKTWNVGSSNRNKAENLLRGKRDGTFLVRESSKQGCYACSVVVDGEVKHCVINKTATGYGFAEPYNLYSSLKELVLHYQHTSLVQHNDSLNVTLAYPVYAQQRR
Following ligand stimulation of receptor tyrosine kinases, PI3K is activated, which converts PIP2 to PIP3, which is bound by the PH domain of PDK1 resulting in recruitment of PDK1 to the plasma membrane where it phosphorylates AKT at Thr308 in the activation loop.
The aim of this cell-based mode of action assay is to identify compounds that inhibit PDK activity or recruitment of PDK1 to membrane by inhibiting PI3K activity. Phosphorylation of phospho-Akt (T308) in BT474c cells following treatment with compounds for 2 h is a direct measure of PDK1 and indirect measure of PI3K activity.
BT474 cells (human breast ductal carcinoma, ATCC HTB-20) were seeded into black 384 well plates (Costar, #3712) at a density of 5600 cells/well in DMEM containing 10% FBS and 1% glutamine and allowed to adhere overnight.
The following morning compounds in 100% DMSO were added to assay plates by acoustic dispensing. After a 2 h incubation at 37° C. and 5% CO2, the medium was aspirated and the cells were lysed with a buffer containing 25 mM Tris, 3 mM EDTA, 3 mM EGTA, 50 mM sodium fluoride, 2 mM Sodium orthovanadate, 0.27M sucrose, 10 mM β-glycerophosphate, 5 mM sodium pyrophosphate, 0.5% Triton X-100 and complete protease inhibitor cocktail tablets (Roche #04 693 116 001, used 1 tab per 50 ml lysis buffer).
After 20 minutes, the cell lysates were transferred into ELISA plates (Greiner #781077) which had been pre-coated with an anti total-AKT antibody in PBS buffer and non-specific binding was blocked with 1% BSA in PBS containing 0.05% Tween 20. Plates were incubated over night at 4° C. The next day the plates were washed with PBS buffer containing 0.05% Tween 20 and further incubated with a mouse monoclonal anti-phospho AKT T308 for 2 h. Plates were washed again as above before addition of a horse anti-mouse-HRP conjugated secondary antibody. Following a 2 h incubation at r.t., plates were washed and QuantaBlu substrate working solution (Thermo Scientific #15169, prepared according to provider's instructions) was added to each well. The developed fluorescent product was stopped after 60 minutes by addition of Stop solution to the wells. Plates were read using a Tecan Safire plate reader using 325 nm excitation and 420 nm emission wavelengths respectively. Except where specified, reagents contained in the Path Scan Phospho AKT (Thr308) sandwich ELISA kit from Cell Signalling (#7144) were used in this ELISA assay.
Background: ELISA stands for enzyme-linked immunosorbent assay.

The next experiment concerns the target T2, ATR kinase (Homo sapiens, UniProt Q13535).
T2 construct: endogenous in cells; host or cells: HT29 cells (ECACC #85061109)
Description: Assay b): ATR cellular potency (pChk1 Ser345 in HT29 cells after 4NQO). The essentials: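 HT29 cells were preincubated with compound for 1 h at 37 °C, 5% CO2, then stimulated with 4NQO for a further 1 h; wells without 4NQO served as the null control. Cells permeabilised with 0.1% Triton X-100. Chk1 Ser345 phosphorylation imaged on ArrayScan VTI at 10× objective.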

For another experiment, the target named is T3, mTOR (Homo sapiens, UniProt P42345).
T3 construct: phosphorylation of the Akt protein at Ser473 (AKT lies downstream of PI3Kα in the signal transduction pathway) in the MDA-MB-468 cells; endogenous in cells; host or cells: MDA-MB-468 cells (ATCC HTB 132)
Kind of experiment: Assay d): mTOR cellular potency (phospho-AKT Ser473 in MDA-MB-468 cells). The method, then: This assay was used to measure mTOR inhibition in cells. The aim of the phospho-AKT cell based mechanism of action assay using the Acumen Explorer is to identify inhibitors of either PI3Kα or mTOR-Rictor (Rapamycin insensitive companion of mTOR). This is measured by any decrease in the phosphorylation of the Akt protein at Ser473 (AKT lies downstream of PI3Kα in the signal transduction pathway) in the MDA-MB-468 cells following treatment with compound.
MDA-MB-468 cells (human breast adenocarcinoma #ATCC HTB 132) were seeded at 1500 cells/well in 40 μl of DMEM containing 10% FBS and 1% glutamine into Greiner 384 well black flat-bottomed plates. Cell plates were incubated for 18 h in a 37° C. incubator before dosing with compounds of Formula (I) in 100% DMSO using acoustic dispensing. Compounds were dosed in a 12 point concentration range into a randomised plate map. Control wells were generated either by dosing of 100% DMSO (max signal) or addition of a reference compound (a PI3K-βinhibitor) that completely eliminated the pAKT signal (min control). Plates were incubated at 37° C. for 2 h; cells were then fixed by the addition of 10 μl of a 3.7% formaldehyde solution. After 30 minutes the plates were washed with PBS using a Tecan PW384 plate washer. Wells were blocked and cells permeabilised with the addition of 40 μl of PBS containing 0.5% Tween20 and 1% Marvel™ (dried milk powder) and incubated for 60 minutes at r.t. The plates were washed with PBS containing 0.5% (v/v) Tween20 and 20 μl rabbit anti-phospho AKT Ser473 (Cell Signalling Technologies, #3787) in same PBS-Tween+1% Marvel™ was added and incubated overnight at 4° C.
Plates were washed 3 times with PBS+0.05% Tween 20 using a Tecan PW384. 20 μl of secondary antibody Alexa Fluor 488 anti-Rabbit (Molecular Probes, #A11008) diluted in PBS+0.05% Tween20 containing 1% Marvel™ was added to each well and incubated for 1 h at r.t. Plates were washed three times as before then 20 μl PBS added to each well and plates sealed with a black plate sealer.
The plates were read on an Acumen plate reader as soon as possible, measuring green fluorescence after excitation with 488 nm laser. Using this system IC50 values were generated and quality of plates was determined by control wells. Reference compounds were run each time to monitor assay performance.

Where [1] appears, read: HT29 cells, X-ray irradiation, pATM Ser1981; Table 2; read-out: Assay a) ATM Cell IC50.
Setting [2] is: HT29 cells, 4NQO, pChk1 Ser345; Table 2; read-out: Assay b) ATR Cell IC50.
[3] abbreviates: HT29 cells, X-ray irradiation, pATM Ser1981; Table 3 comparative data; read-out: Assay a) ATM Cell IC50.
[4] abbreviates: HT29 cells, 4NQO, pChk1 Ser345; Table 3 comparative data; read-out: Assay b) ATR Cell IC50.
Where [5] appears, read: MDA-MB-468 cells, phospho-AKT Ser473, 2 h; Table 3 comparative data; read-out: Assay d) mTOR Cell IC50.
[6] abbreviates: MDA-MB-468 cells, phospho-AKT Ser473, 2 h; Table 2; read-out: Assay d) mTOR Cell IC50.

Consider `CC(C)n1c(=O)n(C)c2cnc3ccc(-c4ccc(OCCN(C)C)cc4)cc3c21` [Example 5, 8-[4-[2-(Dimethylamino)ethoxy]phenyl]-1-isopropyl-3-methyl-imidazo[4,5-c]quinolin-2-one], for which the results for the IC50 on ATM kinase (setting [1]), on PI3K-α and on ATR kinase (setting [2]) were 14.8 nM, over 26900 nM and over 30000 nM, respectively.
With `Cn1c(=O)n(C2CCOCC2)c2c3cc(-c4cnc(N)nc4)ccc3ncc21` [CN102399218A Compound 94, reference compound], the IC50 on ATM kinase (setting [3]) is 494 nM; on ATR kinase (setting [4]) it was 12.9 nM; at mTOR (setting [5]) it was 41.4 nM. The “Assay c) PI3Ka Cell IC50” value on PI3K-α turned out to be 80.4 nM.
For `Cn1c(=O)n(C2CC2)c2c3cc(-c4cnc5[nH]ccc5c4)ccc3ncc21` [CN102399218A Compound 62, reference compound], in that order: 80 nM, 56.3 nM, 15.5 nM and 149 nM.
The matching figures for `Cn1c(=O)n(C2CC2)c2c3cc(-c4cnc(N)nc4)ccc3ncc21` [CN102399218A Compound 64, reference compound]: 216 nM, 162 nM, 287 nM and 247 nM.
The matching figures for `COc1ccc(-c2ccc3ncc4c(c3c2)n(C2CCN(C(C)=O)CC2)c(=O)n4C)cn1` [CN102372711A Compound 5, reference compound]: 26.5 nM, 64.4 nM, 113 nM and 153 nM.
On to `CN(C)CCOc1ccc(-c2ccc3ncc4c(c3c2)n([C@H]2CCCOC2)c(=O)n4C)cc1` [Example 47, 8-[4-[2-(Dimethylamino)ethoxy]phenyl]-3-methyl-1-[(3S)-tetrahydropyran-3-yl]imidazo[4,5-c]quinolin-2-one], for which the IC50 at ATM kinase (setting [1]) was 14.4 nM; at PI3K-α, over 30000 nM; at ATR kinase (setting [2]), over 30000 nM; at mTOR (setting [6]), 5530 nM.
Turning to `COc1ccc(-c2ccc3ncc4c(c3c2)n(C2CCNCC2)c(=O)n4C)cn1` [CN102372711A Compound 1, reference compound], the “Assay c) PI3Ka Cell IC50” value on PI3K-α turned out to be 188 nM. In addition, the IC50 on ATR kinase (setting [4]) worked out at 281 nM; at mTOR (setting [5]), 237 nM.
Consider `COc1ncc(-c2ccc3ncc4c(c3c2)n(C2CC2)c(=O)n4C)cc1NS(=O)(=O)C1CC1` [CN102399218A Compound 114, reference compound], for which the values for the IC50 on ATM kinase (setting [3]), on ATR kinase (setting [4]) and on mTOR (setting [5]) were 74.1 nM, 68.6 nM and 46.9 nM, respectively. Moreover, the “Assay c) PI3Ka Cell IC50” value on PI3K-α was 13.1 nM.
As to `CN(C)CCCOc1ccc(-c2ccc3ncc4c(c3c2)n([C@H]2CCCOC2)c(=O)n4C)cc1` [Example 9, 8-[4-[3-(dimethylamino)propoxy]phenyl]-3-methyl-1-[(3S)-tetrahydropyran-3-yl]imidazo[4,5-c]quinolin-2-one], the IC50 at PI3K-α is 15200 nM; at ATR kinase (setting [2]), over 30000 nM.
As for `Cn1c(=O)n(C2CNC2)c2c3cc(-c4cnc5[nH]ccc5c4)ccc3ncc21` [CN102399218A Compound 61, reference compound], the 50% inhibitory concentration (IC50) amounted to 3460 nM on ATM kinase (setting [3]), 1480 nM on ATR kinase (setting [4]) and 177 nM on mTOR (setting [5]). The “Assay c) PI3Ka Cell IC50” value on PI3K-α stood at 1730 nM.
Consider `CO[C@H]1CC[C@H](n2c(=O)n(C)c3cnc4ccc(-c5ccc(OCCCN6CCCC6)cc5)cc4c32)C1` (single isomer, unassigned) [Example 19, 1-[trans-3-methoxycyclopentyl]-3-methyl-8-[4-(3-pyrrolidin-1-ylpropoxy)phenyl]imidazo[4,5-c]quinolin-2-one], for which the IC50 stood at 0.29 nM at ATM kinase (setting [1]), 18000 nM on ATR kinase (setting [2]) and 634 nM at mTOR (setting [6]).
Take `CN(C)CCCOc1ccc(-c2ccc3ncc4c(c3c2)n([C@@H]2CCCOC2)c(=O)n4C)cc1` [Example 8, 8-[4-[3-(dimethylamino)propoxy]phenyl]-3-methyl-1-[(3R)-tetrahydropyran-3-yl]imidazo[4,5-c]quinolin-2-one]: the values for the IC50 on PI3K-α, on ATR kinase (setting [2]) and at mTOR (setting [6]) were 311 nM, over 30000 nM and 1420 nM, respectively.
In the case of `CO[C@H]1C[C@@H](n2c(=O)n(C)c3cnc4cc(F)c(-c5ccc(OCCCN(C)C)cc5)cc4c32)C1` [Example 12, 8-[4-[3-(dimethylamino)propoxy]phenyl]-7-fluoro-1-(cis3-methoxycyclobutyl)-3-methyl-imidazo[4,5-c]quinolin-2-one], the 50% inhibitory concentration (IC50) at ATM kinase (setting [1]) is 1.88 nM; at PI3K-α, 20400 nM; at ATR kinase (setting [2]), over 30000 nM; at mTOR (setting [6]) it was 5560 nM.
